Laboratory results published in patent publication US20110039721A1, “METHOD FOR PREDICTION ABOUT CARCINOGENICITY OF SUBSTANCE IN RODENT” (Chemicals Evaluation and Research Institute, priority 2007, published 2011).

Tests used:
[1] = tested on: mRNA expressed from the genes (A) to (D) in rat liver; assay: Behavior of genes (mRNA expression level, oligo-DNA microarray) in rat liver after 28-day oral administration; assay type: in vivo; conditions: for Behavior of gene caused by administration of chemical substance, Gene No. 4846 / Behavior of gene caused by administration of chemical substance, Gene No. 2026 / Behavior of gene caused by administration of chemical substance, Gene No. 4218 / Behavior of gene caused by administration of chemical substance, Gene No. 6182 / Behavior of gene caused by administration of chemical substance, Gene No. 5600: gene group (A); for Behavior of gene caused by administration of chemical substance, Gene No. 4846: Unigene No. Rn.144554; for Behavior of gene caused by administration of chemical substance, Gene No. 2026 / Behavior of gene caused by administration of chemical substance, Gene No. 4218: Unigene No. Rn.167075; for Behavior of gene caused by administration of chemical substance, Gene No. 6182: Unigene No. Rn.5834; for Behavior of gene caused by administration of chemical substance, Gene No. 5600: Unigene No. Rn.9836; for Behavior of gene caused by administration of chemical substance, Gene No. 1494 / Behavior of gene caused by administration of chemical substance, Gene No. 2045 / Behavior of gene caused by administration of chemical substance, Gene No. 2203: gene group (B); for Behavior of gene caused by administration of chemical substance, Gene No. 1494: Unigene No. Rn.1430; for Behavior of gene caused by administration of chemical substance, Gene No. 2045: Unigene No. Rn.19329; for Behavior of gene caused by administration of chemical substance, Gene No. 2203: Unigene No. Rn.21240; for Behavior of gene caused by administration of chemical substance, Gene No. 533 / Behavior of gene caused by administration of chemical substance, Gene No. 725 / Behavior of gene caused by administration of chemical substance, Gene No. 1163 / Behavior of gene caused by administration of chemical substance, Gene No. 4973 / Behavior of gene caused by administration of chemical substance, Gene No. 4095 / Behavior of gene caused by administration of chemical substance, Gene No. 1334 / Behavior of gene caused by administration of chemical substance, Gene No. 6620 / Behavior of gene caused by administration of chemical substance, Gene No. 6303 / Behavior of gene caused by administration of chemical substance, Gene No. 5878 / Behavior of gene caused by administration of chemical substance, Gene No. 1131 / Behavior of gene caused by administration of chemical substance, Gene No. 1562 / Behavior of gene caused by administration of chemical substance, Gene No. 1741 / Behavior of gene caused by administration of chemical substance, Gene No. 893 / Behavior of gene caused by administration of chemical substance, Gene No. 6026 / Behavior of gene caused by administration of chemical substance, Gene No. 154 / Behavior of gene caused by administration of chemical substance, Gene No. 1993 / Behavior of gene caused by administration of chemical substance, Gene No. 813 / Behavior of gene caused by administration of chemical substance, Gene No. 2494 / Behavior of gene caused by administration of chemical substance, Gene No. 2546 / Behavior of gene caused by administration of chemical substance, Gene No. 3776 / Behavior of gene caused by administration of chemical substance, Gene No. 3929 / Behavior of gene caused by administration of chemical substance, Gene No. 1119 / Behavior of gene caused by administration of chemical substance, Gene No. 6742 / Behavior of gene caused by administration of chemical substance, Gene No. 5634: gene group (C); for Behavior of gene caused by administration of chemical substance, Gene No. 533: Unigene No. Rn.106184; for Behavior of gene caused by administration of chemical substance, Gene No. 725: Unigene No. Rn.108075; for Behavior of gene caused by administration of chemical substance, Gene No. 1163: Unigene No. Rn.11766; for Behavior of gene caused by administration of chemical substance, Gene No. 4973: Unigene No. Rn.118529; for Behavior of gene caused by administration of chemical substance, Gene No. 4095: Unigene No. Rn.119024; for Behavior of gene caused by administration of chemical substance, Gene No. 1334 / Behavior of gene caused by administration of chemical substance, Gene No. 6620: Unigene No. Rn.120914; for Behavior of gene caused by administration of chemical substance, Gene No. 6303: Unigene No. Rn.123063; for Behavior of gene caused by administration of chemical substance, Gene No. 5878: Unigene No. Rn.143213; for Behavior of gene caused by administration of chemical substance, Gene No. 1131: Unigene No. Rn.144946; for Behavior of gene caused by administration of chemical substance, Gene No. 1562: Unigene No. Rn.14744; for Behavior of gene caused by administration of chemical substance, Gene No. 1741: Unigene No. Rn.1647; for Behavior of gene caused by administration of chemical substance, Gene No. 893: Unigene No. Rn.164817; for Behavior of gene caused by administration of chemical substance, Gene No. 6026: Unigene No. Rn.167685; for Behavior of gene caused by administration of chemical substance, Gene No. 154: Unigene No. Rn.185941; for Behavior of gene caused by administration of chemical substance, Gene No. 1993: Unigene No. Rn.18728; for Behavior of gene caused by administration of chemical substance, Gene No. 813: Unigene No. Rn.201760; for Behavior of gene caused by administration of chemical substance, Gene No. 2494: Unigene No. Rn.23969; for Behavior of gene caused by administration of chemical substance, Gene No. 2546: Unigene No. Rn.24561; for Behavior of gene caused by administration of chemical substance, Gene No. 3776: Unigene No. Rn.43232; for Behavior of gene caused by administration of chemical substance, Gene No. 3929: Unigene No. Rn.4620; for Behavior of gene caused by administration of chemical substance, Gene No. 1119: Unigene No. Rn.9757; for Behavior of gene caused by administration of chemical substance, Gene No. 6742: Unigene No. Rn.9779; for Behavior of gene caused by administration of chemical substance, Gene No. 5634: Unigene No. Rn.9862; for Behavior of gene caused by administration of chemical substance, Gene No. 5726: gene group (D), Unigene No. Rn.9939
In short: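 Groups of four male F344 SPF rats aged 5 weeks are gavaged once a day for 28 days with test chemical in solvent or with solvent alone at equal volume. Total RNA comes from liver taken on day 28. Fold change of 1.5 or 1/1.5 versus control, directionally consistent, defines significance.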

liver = conditions: classification of the substance (Cr+/Cr−); cited from earlier work
rodent = conditions: classification of the substance (C+/C−); cited from earlier work
[2] = classification of the substance (M+/M−); cited from earlier work

Nc1cc([N+](=O)[O-])ccc1C(=O)O [TS082, 4-Nitroanthranilic acid]
Behavior of gene caused by administration of chemical substance, Gene No. 4846 [1]: − | Behavior of gene caused by administration of chemical substance, Gene No. 2026 [1]: − | Behavior of gene caused by administration of chemical substance, Gene No. 4218 [1]: − | Behavior of gene caused by administration of chemical substance, Gene No. 6182 [1]: + | Behavior of gene caused by administration of chemical substance, Gene No. 5600 [1]: − | Behavior of gene caused by administration of chemical substance, Gene No. 1494 [1]: + | Behavior of gene caused by administration of chemical substance, Gene No. 2045 [1]: − | Behavior of gene caused by administration of chemical substance, Gene No. 2203 [1]: − | Behavior of gene caused by administration of chemical substance, Gene No. 533 [1]: + | Behavior of gene caused by administration of chemical substance, Gene No. 725 [1]: − | Behavior of gene caused by administration of chemical substance, Gene No. 1163 [1]: − | Behavior of gene caused by administration of chemical substance, Gene No. 4973 [1]: + | Behavior of gene caused by administration of chemical substance, Gene No. 4095 [1]: + | Behavior of gene caused by administration of chemical substance, Gene No. 1334 [1]: − | Behavior of gene caused by administration of chemical substance, Gene No. 6620 [1]: − | Behavior of gene caused by administration of chemical substance, Gene No. 6303 [1]: + | Behavior of gene caused by administration of chemical substance, Gene No. 5878 [1]: − | Behavior of gene caused by administration of chemical substance, Gene No. 1131 [1]: + | Behavior of gene caused by administration of chemical substance, Gene No. 1562 [1]: + | Behavior of gene caused by administration of chemical substance, Gene No. 1741 [1]: + | Behavior of gene caused by administration of chemical substance, Gene No. 893 [1]: + | Behavior of gene caused by administration of chemical substance, Gene No. 6026 [1]: − | Behavior of gene caused by administration of chemical substance, Gene No. 154 [1]: + | Behavior of gene caused by administration of chemical substance, Gene No. 1993 [1]: + | Behavior of gene caused by administration of chemical substance, Gene No. 813 [1]: − | Behavior of gene caused by administration of chemical substance, Gene No. 2494 [1]: − | Behavior of gene caused by administration of chemical substance, Gene No. 2546 [1]: + | Behavior of gene caused by administration of chemical substance, Gene No. 3776 [1]: + | Behavior of gene caused by administration of chemical substance, Gene No. 3929 [1]: + | Behavior of gene caused by administration of chemical substance, Gene No. 1119 [1]: + | Behavior of gene caused by administration of chemical substance, Gene No. 6742 [1]: + | Behavior of gene caused by administration of chemical substance, Gene No. 5634 [1]: + | Behavior of gene caused by administration of chemical substance, Gene No. 5726 [1]: − | Liver carcinogenicity (liver): Cr− | Carcinogenicity (rodent): C− | Mutagenicity by Ames test [2]: M+

CCN(N=O)C(N)=O [TS050, N-Ethyl-N-nitrosourea]
Behavior of gene caused by administration of chemical substance, Gene No. 4846 ([1]; mRNA vs vehicle control group): − | Behavior of gene caused by administration of chemical substance, Gene No. 2026 ([1]; mRNA vs vehicle control group): − | Behavior of gene caused by administration of chemical substance, Gene No. 4218 ([1]; mRNA vs vehicle control group): − | Behavior of gene caused by administration of chemical substance, Gene No. 6182 ([1]; mRNA vs vehicle control group): + | Behavior of gene caused by administration of chemical substance, Gene No. 5600 ([1]; mRNA vs vehicle control group): − | Behavior of gene caused by administration of chemical substance, Gene No. 1494 ([1]; mRNA vs vehicle control group): − | Behavior of gene caused by administration of chemical substance, Gene No. 2045 ([1]; mRNA vs vehicle control group): − | Behavior of gene caused by administration of chemical substance, Gene No. 2203 ([1]; mRNA vs vehicle control group): − | Behavior of gene caused by administration of chemical substance, Gene No. 533 ([1]; mRNA vs vehicle control group): − | Behavior of gene caused by administration of chemical substance, Gene No. 725 ([1]; mRNA vs vehicle control group): − | Behavior of gene caused by administration of chemical substance, Gene No. 1163 ([1]; mRNA vs vehicle control group): − | Behavior of gene caused by administration of chemical substance, Gene No. 4973 ([1]; mRNA vs vehicle control group): − | Behavior of gene caused by administration of chemical substance, Gene No. 4095 ([1]; mRNA vs vehicle control group): − | Behavior of gene caused by administration of chemical substance, Gene No. 1334 ([1]; mRNA vs vehicle control group): − | Behavior of gene caused by administration of chemical substance, Gene No. 6620 ([1]; mRNA vs vehicle control group): − | Behavior of gene caused by administration of chemical substance, Gene No. 6303 ([1]; mRNA vs vehicle control group): + | Behavior of gene caused by administration of chemical substance, Gene No. 5878 ([1]; mRNA vs vehicle control group): − | Behavior of gene caused by administration of chemical substance, Gene No. 1131 ([1]; mRNA vs vehicle control group): − | Behavior of gene caused by administration of chemical substance, Gene No. 1562 ([1]; mRNA vs vehicle control group): − | Behavior of gene caused by administration of chemical substance, Gene No. 1741 ([1]; mRNA vs vehicle control group): − | Behavior of gene caused by administration of chemical substance, Gene No. 893 ([1]; mRNA vs vehicle control group): − | Behavior of gene caused by administration of chemical substance, Gene No. 6026 ([1]; mRNA vs vehicle control group): − | Behavior of gene caused by administration of chemical substance, Gene No. 154 ([1]; mRNA vs vehicle control group): − | Behavior of gene caused by administration of chemical substance, Gene No. 1993 ([1]; mRNA vs vehicle control group): − | Behavior of gene caused by administration of chemical substance, Gene No. 813 ([1]; mRNA vs vehicle control group): − | Behavior of gene caused by administration of chemical substance, Gene No. 2494 ([1]; mRNA vs vehicle control group): − | Behavior of gene caused by administration of chemical substance, Gene No. 2546 ([1]; mRNA vs vehicle control group): − | Behavior of gene caused by administration of chemical substance, Gene No. 3776 ([1]; mRNA vs vehicle control group): − | Behavior of gene caused by administration of chemical substance, Gene No. 3929 ([1]; mRNA vs vehicle control group): − | Behavior of gene caused by administration of chemical substance, Gene No. 1119 ([1]; mRNA vs vehicle control group): − | Behavior of gene caused by administration of chemical substance, Gene No. 6742 ([1]; mRNA vs vehicle control group): − | Behavior of gene caused by administration of chemical substance, Gene No. 5634 ([1]; mRNA vs vehicle control group): − | Behavior of gene caused by administration of chemical substance, Gene No. 5726 ([1]; mRNA vs vehicle control group): + | Liver carcinogenicity (liver): Cr− | Carcinogenicity (rodent): C+ | Mutagenicity by Ames test [2]: M+
